Source: article PMC3254824 (Biochemistry, 2011)

Legend:
[1] = target: T1, yThg1 (yeast Thg1, tRNA^His guanylyltransferase) (Saccharomyces cerevisiae, UniProt P53215); test: single-turnover adenylylation kinetics, […]'-32P tRNA; assay type: biochemical; conditions: read-out: KDapp,NTP, adenylylation step, 15 μM enzyme, 10 mM MgCl2, pH 6.0, room temperature
T1 sequence (P53215 1-237): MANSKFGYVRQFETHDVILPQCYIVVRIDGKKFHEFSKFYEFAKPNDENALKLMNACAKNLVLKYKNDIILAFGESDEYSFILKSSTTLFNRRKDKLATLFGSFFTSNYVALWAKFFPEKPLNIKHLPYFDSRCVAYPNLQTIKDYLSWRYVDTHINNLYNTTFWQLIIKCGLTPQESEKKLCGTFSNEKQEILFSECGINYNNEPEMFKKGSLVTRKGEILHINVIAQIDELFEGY

[2] = target: T1, yThg1 (yeast Thg1, tRNA^His guanylyltransferase); test: single-turnover nucleotidyl transfer kinetics, gamma-32P ppp-tRNA; assay type: biochemical; conditions: read-out: KDapp,NTP, nucleotidyl transfer step, 15 μM enzyme, 10 mM MgCl2, pH 7.5, room temperature

Row | Compound | Kd [1] | Kd [2]
1 | Nc1ncnc2c1ncn2[C@@H]1O[C@H](COP(=O)(O)OP(=O)(O)OP(=O)(O)O)[C@@H](O)[C@H]1O [ATP] | 360 ± 80 µM | 
2 | Nc1nc2c(ncn2[C@@H]2O[C@H](COP(=O)(O)OP(=O)(O)OP(=O)(O)O)[C@@H](O)[C@H]2O)c(=O)[nH]1 [GTP] |  | 21 ± 4 µM
